In the OPERA property sets (Mansouri et al. 2018):

settings: not given

Row | SMILES | boiling point | melting point | log10 Henry constant (atm·m³/mol) | log10 vapour pressure (mmHg) | ready biodegradability | log10 Koc (L/kg)
1 | Cc1ccc(NCc2ccccc2)cc1 | 319 °C | 19.5 °C |  |  |  | 
2 | Cc1cccc(N2CC(CO)OC2=O)c1 (configuration not stated) |  | 76 °C |  |  |  | 
3 | CC1CCCC(O)C1 (configuration not stated) | 163 °C |  | -5.44 | -0.32 |  | 
4 | COc1ccc([N+](=O)[O-])cc1N |  | 118 °C |  |  |  | 
5 | O=C(c1ccccc1)c1ccc2n1CCC2C(=O)O (configuration not stated) |  | 160 °C |  |  |  | 
6 | Oc1c(O)c(Br)c(Br)c(Br)c1Br |  | 191 °C |  |  |  | 
7 | CCC1=CCCC1 | 106 °C | -118 °C |  |  |  | 
8 | CC(C)c1ccccc1O | 214 °C | 15.5 °C |  | -1 |  | 
9 | C=CCN=C(S)NCCO |  | 78 °C |  |  |  | 
10 | C/C=C1/C[C@@H](C)[C@](O)(CO)C(=O)OCC2=CCN3CC[C@@H](OC1=O)[C@@H]23 |  | 212 °C |  |  |  | 
11 | O=C(O)CCCCCCBr | 280 °C | 31 °C |  |  | readily biodegradable | 
12 | Nc1ccc(S(=O)(=O)Nc2cnc3ccccc3n2)cc1 |  | 248 °C |  |  |  | 
13 | C=CC/C=C/C | 65 °C | -139 °C |  | 2.24 |  | 
14 | CCOC(O)C(F)(F)F (configuration not stated) | 104 °C |  |  |  |  | 
15 | CCCCCCCNCCCCCCC | 271 °C | 31.5 °C |  |  |  | 
16 | O=C(O)C1=CC(=C(c2ccc(O)c(C(=O)O)c2)c2ccc(O)c(C(=O)O)c2)C=CC1=O |  | 300 °C |  |  |  | 
17 | FC(F)(Cl)C(Cl)(Cl)C(F)(F)Cl | 112 °C | -42.9 °C |  |  |  | 
18 | CCCC(C)CCN (configuration not stated) | 149 °C |  |  |  |  | 
19 | Cc1ccc(Br)cc1N |  | 33 °C |  |  |  | 
20 | Oc1ccc2c(c1)[C@@]13CCCC[C@@]1(O)[C@@H](C2)N(CC1CCC1)CC3 |  | 216 °C |  |  |  | 
21 | CCCC1CCCC(C)C1 (configuration not stated) | 164 °C |  |  |  |  | 

Row | SMILES | boiling point | melting point | log10 Henry constant (atm·m³/mol) | log10 vapour pressure (mmHg) | ready biodegradability | log10 Koc (L/kg)
22 | CC(C)CCOC(=O)CC(C)C | 190 °C |  |  | -0.0526 |  | 
23 | CC1COC(Cn2cncn2)(c2ccc(Oc3ccc(Cl)cc3)cc2Cl)O1 (configuration not stated) |  | 76 °C |  | -9.6 |  | 
24 | Nc1ccccc1I |  | 56.5 °C |  |  |  | 
25 | CC=Cc1ccc(O)c(OC)c1 | 266 °C | 11.8 °C |  | -1.92 |  | 
26 | C1=C(c2ccccc2)CCCC1 | 252 °C | -11 °C |  |  |  | 
27 | CC(=O)OOC(=O)c1ccccc1 |  | 37 °C |  |  |  | 
28 | CC(C)CCC[C@@H](C)[C@H]1CC[C@H]2C3=CC=C4C[C@@H](O)CC[C@]4(C)[C@H]3CC[C@]12C |  | 150 °C |  |  |  | 
29 | O/N=C\c1cc[n+](COC[n+]2ccc(/C=N\O)cc2)cc1.[Cl-].[Cl-] |  | 220 °C |  |  |  | 
30 | O=C1OC(=O)c2c(I)c(I)c(I)c(I)c21 |  | 328 °C |  |  |  | 
31 | NC(=O)c1ccccc1[N+](=O)[O-] | 317 °C | 177 °C |  |  |  | 1.45
32 | CCOc1cccc([N+](=O)[O-])c1 | 264 °C | 36 °C |  |  |  | 
33 | O=C(O)C1CSCN1 (configuration not stated) |  | 196 °C |  |  |  | 
34 | O=C(O)c1cccc(Cl)n1 |  |  |  |  | not readily biodegradable | 1.37
35 | C1CCCCCC1 | 118 °C | -8 °C |  | 1.33 |  | 
36 | CCCCCCCCC(=O)OCC | 227 °C | -36.7 °C |  |  |  | 
37 | O=C(Nc1ccc(Br)cc1)c1cc(Br)cc(Br)c1O |  | 227 °C |  |  |  | 
38 | NS(=O)(=O)c1cc(C(=O)c2ccc(O)cc2)cs1 |  | 192 °C |  |  |  | 
39 | O=C1CSC2(CCN(CCCN3c4ccccc4Sc4ccc(Cl)cc43)CC2)N1 |  | 155 °C |  |  |  | 
40 | C[C@@H]1CC[C@H](C)c2ccccc21 | 226 °C |  |  |  |  | 
41 | COP(=S)(OC)SCC(=O)N(C)C=O |  | 25.5 °C |  | -6.07 |  | 
42 | CCCC(C(C)=O)C(=O)OCC (configuration not stated) | 224 °C |  |  |  |  | 

Row | SMILES | boiling point | melting point | log10 Henry constant (atm·m³/mol) | log10 vapour pressure (mmHg) | ready biodegradability | log10 Koc (L/kg)
43 | CCCCCCCCCCCCCCCC(CCCC)c1ccccc1 (configuration not stated) |  | 30.2 °C |  |  |  | 
44 | CCOC(=O)C1CCCCC1 | 196 °C |  |  |  |  | 
45 | C[Si](C)(C)c1ccccc1 | 170 °C |  |  |  |  | 
46 | CCCCCCCC/C=C\CCCCCCCC(=O)OCC(O)CO (configuration not stated) |  | 35 °C |  |  | readily biodegradable | 
47 | C=C[Si](C)(C)C | 55 °C |  |  |  |  | 
48 | CCOC(=O)C1(c2cccc(O)c2)CCN(C)CC1 |  | 110 °C |  |  |  | 
49 | Oc1cc(Br)cc(Br)c1 | 274 °C | 81 °C |  |  |  | 
50 | Ic1ccc(I)cc1 | 285 °C | 132 °C |  |  |  | 
51 | CC(=O)[C@@H]1CC[C@H]2[C@@H]3CCC4=CC(=O)CC[C@]4(C)[C@H]3C(=O)C[C@]12C |  | 172 °C |  |  |  | 
52 | CCOc1ccc(C(=O)OCCN(CC)CC)cc1 |  | 173 °C |  |  |  | 
53 | O=S1(=O)CCOCC1 |  | 132 °C |  |  |  | 
54 | O=c1oc2ccccc2c(O)c1C1CC(c2ccc(OCc3ccc(C(F)(F)F)cc3)cc2)Cc2ccccc21 (configuration not stated) |  | 167 °C |  |  |  | 
55 | Fc1c(F)c(F)c(Sc2c(F)c(F)c(F)c(F)c2F)c(F)c1F |  | 87 °C |  |  |  | 
56 | CCCCCCC(=O)OCCCC | 226 °C | -67.5 °C |  |  |  | 
57 | NNC(=O)NN |  | 154 °C |  |  |  | 
58 | CC(C)NCC(O)c1cc(O)cc(O)c1 (configuration not stated) |  | 100 °C |  |  |  | 
59 | C#CCOS(=O)OC1CCCCC1Oc1ccc(C(C)(C)C)cc1 (configuration not stated) |  |  |  | -6.52 |  | 3.6
60 | CCOCCC#N | 154 °C |  |  |  |  | 
61 | CC1CCCNC1=O (configuration not stated) | 250 °C | 55.3 °C |  |  |  | 
62 | O=C=Nc1ccc(Cl)c(Cl)c1 |  | 43 °C |  |  |  | 
63 | CCCCCCCC(=O)OCCCCC | 260 °C | -34.8 °C |  |  |  | 

same assay, conditions: fish

Row | SMILES | log10 BCF | log10 biotransformation half-life (days)
64 | Nc1cc(Cl)c(Cl)cc1Cl | 2.33 | -0.01
65 | CC(N)c1ccccc1 (configuration not stated) | 0.82 | 
66 | Clc1cc(Cl)c(Cl)c(-c2c(Cl)ccc(Cl)c2Cl)c1 |  | 2.32
67 | CC(O)COCC(C)O (configuration not stated) | 0.66 | 
68 | Cc1cc(C)c(O)c(C)c1 | 0.93 | -1.3
